Columns and labels:
[1] = biological target: T1, human recombinant adrenergic α2A receptor (Homo sapiens, UniProt P08913); test: Radioligand binding, adrenergic α2A ([3H]MK-912); settings: for Percentage inhibition of ligand binding, Adrenergic α2A (0.1 μM): compound at 0.1 μM; for Percentage inhibition of ligand binding, Adrenergic α2A (0.1 μM) / inhibition at 0.03 µM / inhibition at 0.1 µM: [3H]MK-912, repeat datapoints each shown; for inhibition at 0.03 µM: read-out: Percentage inhibition of ligand binding, Adrenergic α2A (0.03 μM), compound at 0.03 μM; for inhibition at 0.1 µM: read-out: Percentage inhibition of ligand binding, Adrenergic α2A (0.1 μM), compound at 0.1 μM
T1 construct: expressed in transfected cells; host or cells: insect Sf9 cells
T1 sequence (P08913 1-465): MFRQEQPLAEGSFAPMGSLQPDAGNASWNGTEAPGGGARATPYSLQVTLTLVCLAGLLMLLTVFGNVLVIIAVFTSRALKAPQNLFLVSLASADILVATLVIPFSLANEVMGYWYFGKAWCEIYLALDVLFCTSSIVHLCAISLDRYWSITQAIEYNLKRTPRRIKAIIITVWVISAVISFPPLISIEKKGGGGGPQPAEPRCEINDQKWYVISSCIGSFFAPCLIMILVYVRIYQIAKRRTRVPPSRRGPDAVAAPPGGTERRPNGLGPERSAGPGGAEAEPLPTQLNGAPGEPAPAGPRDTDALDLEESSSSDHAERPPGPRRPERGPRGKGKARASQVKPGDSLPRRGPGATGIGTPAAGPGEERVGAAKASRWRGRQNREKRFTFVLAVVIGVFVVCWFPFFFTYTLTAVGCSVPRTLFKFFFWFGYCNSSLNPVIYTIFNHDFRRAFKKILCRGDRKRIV
How it was run: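 Receptor expressed in insect Sf9 cells, assayed in 50 mM Tris-HCl pH 7.4 with 12.5 mM MgCl2 and 2 mM EDTA. Compounds incubated with 1 nM [3H]MK-912 for 60 min at 25 °C; nonspecific binding defined with 10 μM WB-4101. Filter-bound radioactivity counted; values are percent inhibition of specific binding.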

[2] = biological target: T2, human recombinant adrenergic α2B receptor (Homo sapiens, UniProt P18089); test: Radioligand binding, adrenergic α2B ([3H]Rauwolscine); settings: for Percentage inhibition of ligand binding, Adrenergic α2B (0.03 μM): compound at 0.03 μM; for Percentage inhibition of ligand binding, Adrenergic α2B (0.03 μM) / inhibition at 0.03 µM: [3H]Rauwolscine, repeat datapoints each shown; for inhibition at 0.03 µM: read-out: Percentage inhibition of ligand binding, Adrenergic α2B (0.03 μM), compound at 0.03 μM; for Ki: read-out: Ki α2B
T2 construct: expressed in transfected cells; host or cells: CHO-K1
T2 sequence (P18089 1-450): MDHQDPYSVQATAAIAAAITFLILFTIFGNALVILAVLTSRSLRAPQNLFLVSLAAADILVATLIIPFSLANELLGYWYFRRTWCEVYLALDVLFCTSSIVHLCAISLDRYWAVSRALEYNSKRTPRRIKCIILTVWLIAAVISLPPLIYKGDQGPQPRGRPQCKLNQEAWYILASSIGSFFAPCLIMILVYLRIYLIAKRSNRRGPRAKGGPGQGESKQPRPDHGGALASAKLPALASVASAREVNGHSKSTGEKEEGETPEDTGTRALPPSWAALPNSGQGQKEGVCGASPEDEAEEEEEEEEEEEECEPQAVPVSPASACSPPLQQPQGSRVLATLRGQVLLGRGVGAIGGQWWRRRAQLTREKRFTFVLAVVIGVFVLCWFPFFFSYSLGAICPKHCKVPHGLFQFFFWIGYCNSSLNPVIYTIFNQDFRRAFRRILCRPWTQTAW
How it was run: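 Values are percent inhibition of specific radioligand binding. The receptor, expressed in CHO-K1 cells, was exposed to 2.5 nM [3H]Rauwolscine at 25° C for 60 min, with 10 μM Prazosin marking non-specific binding.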

[3] = biological target: T3, rat adrenergic α1B receptor (Rattus norvegicus, UniProt P15823); test: Radioligand binding, adrenergic α1B ([3H]Prazosin); settings: [3H]Prazosin, repeat datapoints each shown; for Percentage inhibition of ligand binding, Adrenergic α1B (0.1 μM): compound at 0.1 μM; for inhibition at 0.03 µM: read-out: Percentage inhibition of ligand binding, Adrenergic α1B (0.03 μM), compound at 0.03 μM; for inhibition at 0.1 µM: read-out: Percentage inhibition of ligand binding, Adrenergic α1B (0.1 μM), compound at 0.1 μM
T3 construct: rat adrenergic α1B receptor obtained from Wistar Rat liver; from tissue; host or cells: Wistar rat liver
T3 sequence (P15823 1-515): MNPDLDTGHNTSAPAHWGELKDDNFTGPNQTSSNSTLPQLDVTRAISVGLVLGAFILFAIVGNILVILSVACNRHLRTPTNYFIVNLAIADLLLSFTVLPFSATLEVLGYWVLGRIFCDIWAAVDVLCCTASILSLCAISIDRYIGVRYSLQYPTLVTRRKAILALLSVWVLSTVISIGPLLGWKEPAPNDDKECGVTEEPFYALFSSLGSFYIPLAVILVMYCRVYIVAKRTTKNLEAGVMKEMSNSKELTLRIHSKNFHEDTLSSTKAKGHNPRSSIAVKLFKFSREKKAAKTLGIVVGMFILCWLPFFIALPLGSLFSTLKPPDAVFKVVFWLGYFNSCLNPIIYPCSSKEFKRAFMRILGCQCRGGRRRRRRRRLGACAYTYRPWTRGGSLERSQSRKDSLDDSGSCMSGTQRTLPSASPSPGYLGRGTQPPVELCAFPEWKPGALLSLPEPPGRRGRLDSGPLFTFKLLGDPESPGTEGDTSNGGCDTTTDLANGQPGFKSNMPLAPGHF
How it was run: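 Incubation ran 60 min at 25 °C in Tris-HCl buffer (50 mM, pH 7.4, 0.5 mM EDTA) with Wistar rat liver α1B receptor. 10 μM phentolamine set non-specific binding.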

SMILES | Percentage inhibition of ligand binding, Adrenergic α2A (0.1 μM) [1] | Percentage inhibition of ligand binding, Adrenergic α2B (0.03 μM) [2] | Percentage inhibition of ligand binding, Adrenergic α1B (0.1 μM) [3] | inhibition at 0.03 µM [2] | Ki [1] | inhibition at 0.03 µM [1] | inhibition at 0.1 µM [1] | Ki [2] | inhibition at 0.03 µM [3] | inhibition at 0.1 µM [3]
Cc1cc2c3c(n(CC(C)(O)c4cccnc4)c2cc1Cl)CCN(C)C3 (single isomer, unassigned) [II-123b, 1-(7-chloro-2,8-dimethyl-3,4-dihydro-1H-pyrido[4,3-b]indol-5(2H)-yl)-2-(pyridin-3-yl)propan-2-ol] | 75% | 93% | 61% |  |  |  |  |  |  | 
Cc1ccc2c(c1Cl)c1c(n2CC(C)(O)c2cccnc2)CCN(C)C1 (single isomer, unassigned) [II-124a, 1-(9-chloro-2,8-dimethyl-3,4-dihydro-1H-pyrido[4,3-b]indol-5(2H)-yl)-2-(pyridin-3-yl)propan-2-ol] | 23% |  | −2% | 26% |  |  |  |  |  | 
Cc1ccc2c(c1Cl)c1c(n2CC(C)(O)c2cccnc2)CCN(C)C1 (single isomer, unassigned) [II-124b, 1-(9-chloro-2,8-dimethyl-3,4-dihydro-1H-pyrido[4,3-b]indol-5(2H)-yl)-2-(pyridin-3-yl)propan-2-ol] | 7% | 18% | 10% |  |  |  |  |  |  | 
Cc1cc(C)c2c(c1)c1c(n2CC(O)c2ccncc2)CCN2CCCC12 (single isomer, unassigned) [II-125a, 2-(8,10-dimethyl-2,3,5,6-tetrahydro-1H-indolizino[7,8-b]indol-7(11cH)-yl)-1-(pyridin-4-yl)ethanol] | 62% | 100% | 92% |  |  |  |  |  |  | 
Cc1cc(C)c2c(c1)c1c(n2CC(O)c2ccncc2)CCN2CCCC12 (single isomer, unassigned) [II-125b, 2-(8,10-dimethyl-2,3,5,6-tetrahydro-1H-indolizino[7,8-b]indol-7(11cH)-yl)-1-(pyridin-4-yl)ethanol] | 98% | 106% | 102% | 103% | 1.21 nM | 89% | 97% | 0.16 nM | 89% | 97%
Cc1cc(C)c2c(c1)c1c(n2CC(O)c2ccncc2)CCN2CCCC12 (single isomer, unassigned) [II-125c, 2-(8,10-dimethyl-2,3,5,6-tetrahydro-1H-indolizino[7,8-b]indol-7(11cH)-yl)-1-(pyridin-4-yl)ethanol] | 9% | 67% | 42% |  |  |  |  |  |  | 
Cc1cc(C)c2c(c1)c1c(n2CC(O)c2ccncc2)CCN2CCCC12 (single isomer, unassigned) [II-125d, 2-(8,10-dimethyl-2,3,5,6-tetrahydro-1H-indolizino[7,8-b]indol-7(11cH)-yl)-1-(pyridin-4-yl)ethanol] | 71% | 88% | 64% |  |  |  |  |  |  | 
Cc1ccc2c(c1)c1c(n2CC(C)(O)c2cccnc2)CCN2CCCC12 (single isomer, unassigned) [II-127a, 1-(9-methyl-1,2,3,4,5,10c-hexahydro-3a,6-diaza-cyclopenta[c]fluoren-6-yl)-2-pyridin-3-yl-propan-2-ol] | 79% |  |  | 105% |  |  |  |  |  | 83%
Cc1ccc2c(c1)c1c(n2CC(C)(O)c2cccnc2)CCN2CCCC12 (single isomer, unassigned) [II-127b, 1-(9-methyl-1,2,3,4,5,10c-hexahydro-3a,6-diaza-cyclopenta[c]fluoren-6-yl)-2-pyridin-3-yl-propan-2-ol] | 54% | 104% | 65% |  |  |  |  |  |  | 
Cc1ccc2c(c1)c1c(n2CC(C)(O)c2ccc(C)nc2)CCN2CCCC12 (single isomer, unassigned) [II-128b, 1-(9-methyl-1,2,3,4,5,10c-hexahydro-3a,6-diaza-cyclopenta[c]fluoren-6-yl)-2-(6-methyl-pyridin-3-yl)-propan-2-ol] | 77% | 106% | 86% | 102% | 13.1 nM | 50% | 74% | 0.49 nM | 56% | 84%
CC(O)(Cn1c2c(c3cc(Cl)ccc31)C1CCCN1CC2)c1cccnc1 (single isomer, unassigned) [II-130a, 1-(10-chloro-2,3,5,6-tetrahydro-1H-indolizino[7,8-b]indol-7(11cH)-yl)-2-(pyridin-3-yl)propan-2-ol] | 86% | 103% | 92% |  |  |  |  |  |  | 
CC(O)(Cn1c2c(c3cc(Cl)ccc31)C1CCCN1CC2)c1cccnc1 (single isomer, unassigned) [II-130b, 1-(10-chloro-2,3,5,6-tetrahydro-1H-indolizino[7,8-b]indol-7(11cH)-yl)-2-(pyridin-3-yl)propan-2-ol] | 15% | 33% | 3% |  |  |  |  |  |  | 
Cc1ccc2c(c1)c1c(n2CC(O)c2cc[nH]c(=O)c2)CCN2CCCC12 (single isomer, unassigned) [II-132a, 4-(2-(2,3,5,6-tetrahydro-10-methyl-1H-indolizino[7,8-b]indol-7(11cH)-yl)-1-hydroxyethyl)pyridin-2(1H)-one] | 8% | 40% | 33% |  |  |  |  |  |  | 
Cc1ccc2c(c1)c1c(n2CC(O)c2cc[nH]c(=O)c2)CCN2CCCC12 (single isomer, unassigned) [II-132b, 4-(2-(2,3,5,6-tetrahydro-10-methyl-1H-indolizino[7,8-b]indol-7(11cH)-yl)-1-hydroxyethyl)pyridin-2(1H)-one] | 22% | 70% | 68% |  |  |  |  |  |  | 

Reference: patent publication US8791132B2, “Compounds and methods for treatment of hypertension” (Medivation Technologies, Inc., priority 2011, dated 2014)
